What was measured:
Baf3 cells = test: IL-3-induced proliferation of Baf3 cells; type: cell-based, murine; settings: at 1,000 μg/ml
Method: The murine hematopoietic cell line Baf3 was maintained in RPMI 1640 medium supplemented with 10% fetal calf serum (FCS) and murine IL-3 (20 units/ml) as described previously. Human myeloid cell line TF-1 was maintained in RPMI 1640 supplemented with 10% FCS and 40 ng/ml of recombinant human GM-CSF as described previously. For cell proliferation assays, cells were washed in 10% FCS medium twice, resuspended in 10% FCS medium, incubated at 37° C. for 16 hours and then cultured at 37° C. in 10% FCS medium containing various amounts of cytokines, sodium stibogluconate, or PSbT for 3-6 days as indicated. The cell numbers in proliferation assays were determined by an MTT assay or by microscopic cell counting as indicated.

[1] = target: T1, intracellular Flag-PRL-2 in WM9 cells (Homo sapiens, UniProt Q12974); test: PTPase activity of anti-Flag immunocomplexes from WM9 transfectants; type: cell-based; settings: treated 5 minutes
T1 construct: expressed in transfected cells; host or cells: WM9 human melanoma cells
T1 sequence (Q12974 whole entry): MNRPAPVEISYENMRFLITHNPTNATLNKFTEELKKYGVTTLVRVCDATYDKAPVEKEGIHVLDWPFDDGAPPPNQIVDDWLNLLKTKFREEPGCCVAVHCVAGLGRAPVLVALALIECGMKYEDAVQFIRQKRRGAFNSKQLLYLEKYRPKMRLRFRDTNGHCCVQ
Method: FIG. 6C. Sodium stibogluconate inactivates intracellular PRL-2 in WM9 human melanoma cells. A. Relative PTPase activities of anti-Flag immunocomplexes from WM9 cells transfected with the control vector (V) or Flag-PRL-2 expression construct and then treated with different amounts of sodium stibogluconate for 5 minutes B. Relative amounts of Flag-PRL-2 in the immunocomplexes as determined by SDS-PAGE/Western blotting. C. Relative PTPase activities of anti-MKP1 immunocomplexes from WM9 cells treated with different amounts of sodium stibogluconate for 5 minutes. Relative amounts of MKP1 in the immunocomplexes as determined by SDS-PAGE/Western blotting.
Flag-PRL-2 protein was detected in anti-Flag immunocomplexes from WM9 cells tranfected with an expression construct of Flag-PRL-2 but not in those from vector transfectants expected.

prostate cancer = settings: cited from earlier work
WM9 cells = test: Apoptotic cells by Annexin V/propidium iodide assay (fluorescent microscopy); type: cell-based, human; settings: 3 days, control 5%
Method: (§1) Detection of apoptotic cells by Annexin V/propidium iodide assay. Annexin V staining of exposed membrane phospholipid phosphatidylserine (PS) was done using the Annexin V assay kit (Pharmingen, San Diego, Calif.). Briefly, U266 or WM9 cells were cultured in the 10% FCS RPMI 1640 medium in the absence or presence of sodium stibogluconate, IFNα, or both for 3 days. Cells were then washed in PBS twice and stained in binding buffer (10 mM Hepes, pH 7.4; 140 mM NaCl; 2.5 mM CaCl2) containing Annexin V-FITC and propidium iodide for 15 min. The reaction was stopped by adding 10 volumes of binding buffer and analyzed by FACS (Becton Dickinson Facsvantage) or fluorescent microscopy.

[2] = system: WM9 human melanoma xenografts; test: Xenografts of human melanoma in nude mice, tumor volume; type: in vivo; settings: day 25, IFNα 500,000 U s.c. daily, sodium stibogluconate 12 mg Sb s.c. daily
From the text: (§2) FIG. 11 illustrates that sodium stibogluconate appears to synergize with IFNα against WM9 human melanoma tumors in nude mice. IFNα or both on the growth of xenografts of human melanoma cell line WM9 and human prostate carcinoma cell line DU-145 in athymic nude mice. Nude mice of 4 weeks old were inoculated subcutaneously (s.c.) with WM9 human melanoma cells (3×10^6 cells/site) (A) or DU-145 human prostate cancer cells (2×10^6 cells/site) (B) on day 0. Starting on day 2, the mice were subjected to no treatment (Control) or treatment with IFNα (500,000 U, s.c., daily), sodium stibogluconate (12 mg, s.c., daily) or both (Combo). Tumor volume in the nude mice (4 mice/group, 2 tumors/mouse) was measured on the days as indicated. Tumor volume was calculated by the equation: (length×width^2)/2 to compare tumor growth rates. All mice survived by the end of the experiment. […]
For each of the cell lines, each of 16 mice received subcutaneous injection at the chest area of 3×10^6 cells/site (WM9) or 2×10^6 cells/site (DU145), two sites/mouse, on day 0. […] Tumor size was measured with a caliper to determine the two perpendicular diameters of each tumor. Tumor volume was calculated using the method of the NCI (length×width^2 in millimeters/2=volume in cubic millimeters). […]

U266 cells = test: Apoptotic cells by Annexin V/propidium iodide assay; type: cell-based, human; settings: sodium stibogluconate 100 μg/ml, IFNα 1000 u/ml, 3 days, control 8%
Method: as §1

[3] = system: DU145 human prostate carcinoma xenografts; test: Xenografts of human prostate carcinoma in nude mice, tumor volume; type: in vivo; settings: day 25, IFNα 500,000 U s.c. daily, sodium stibogluconate 12 mg Sb s.c. daily, alone or combined
From the text: as §2
For each of the cell lines, each of 16 mice received subcutaneous injection at the chest area of 3×10^6 cells/site (WM9) or 2×10^6 cells/site (DU145), two sites/mouse, on day 0. […] Tumor size was measured with a caliper to determine the two perpendicular diameters of each tumor. Tumor volume was calculated using the method of the NCI (length×width^2 in millimeters/2=volume in cubic millimeters).

H9 cells (T-lymphoma) = test: Growth inhibition of human tumor cell lines; type: cell-based; settings: SS 12.5 μg/ml, IFNα 1,000 u/ml, alone or combined

For O.O.O.O.O.O.O.O.O.O=C([O-])[C@@H]1[O][Sb]2([O-])([O][Sb]34([OH])[O][C@H]([C@H](O)CO)[C@H]([O]3)[C@H](C(=O)[O-])[O]4)[O][C@H]([C@H](O)CO)[C@@H]1[O]2.[Na+].[Na+].[Na+] [sodium stibogluconate], which “IL-3-induced Baf3 growth” value (Baf3 cells) is on record?
The value was “suppressed”.

And the “PTPase activity of Flag-PRL-2 immunocomplexes from treated WM9 transfectants” value [1]?
The value was “only low levels of PTPase activity”.

With IFNα as the molecule, how does the “patients in whom the cytokine is effective” value (prostate cancer) read?
The value was 5%.

What about the “percentage of apoptotic cells” value (WM9 cells) of the same molecule?
Its value is 15%.

What about the “average tumor volume, of the control group” value [2] of the same molecule?
Its value is “approximately 40%”.

What about the “percentage of apoptotic cells” value (U266 cells) of the same molecule?
Its value is 16%.

And the “average tumor volume, of the control” value [3]?
Its value is “approximately 70%”.

What about the “% of growth inhibition by day 6 (±s.d.)” value (H9 cells (T-lymphoma)) of the same molecule?
Its value is 86 (3) %.

— patent US7744867B2, “PTPase inhibitors and method of using same” (The Cleveland Clinic Foundation, priority 2001, dated 2010)
